Reference: ChEMBL document CHEMBL1140680 (Bioorg Med Chem Lett, 2007)
pIC50: −log10 of the molar value. ≈ marks a conversion by molar mass, not a printed value.

Legend:
[1] = system: Streptococcus pyogenes; experiment: Antibacterial activity against Streptococcus pyogenes C203 SP1-1 by micro-broth method; assay type: functional
[2] = system: Enterococcus faecalis; experiment: Antibacterial activity against Enterococcus faecalis MG2 EF1 by micro-broth method; assay type: functional
[3] = system: Staphylococcus aureus; experiment: Antibacterial activity against Staphylococcus aureus UC76 SA1 by micro-broth method; assay type: functional
[4] = system: Streptococcus pneumoniae; experiment: Antibacterial activity against Streptococcus pneumoniae SV1 SP3 by micro-broth method; assay type: functional
[5] = system: Haemophilus influenzae; experiment: Antibacterial activity against Heamophilus influenzae HI3542 by microbroth method; assay type: functional
[6] = system: Moraxella catarrhalis; experiment: Antibacterial activity against Moraxella catarrhalis BC-3531 by micro-broth method; assay type: functional
[7] = system: Escherichia coli; experiment: Inhibition of transcription and translation activity in Escherichia coli by luciferase reporter assay; assay type: functional, organism-based

Structure (SMILES) | MIC [1] [µg/mL] | MIC [2] [µg/mL] | MIC [3] [µg/mL] | MIC [4] [µg/mL] | MIC [5] [µg/mL] | MIC [6] [µg/mL] | pIC50 [7]
O=C(NC[C@H]1CN(c2ccc3c(c2)CCCc2c(-c4ccno4)n[nH]c2-3)C(=O)O1)C1CC1 | 0.25 (≈ 0.577 µM) | 0.5 (≈ 1.15 µM) | 1 (≈ 2.31 µM) | 0.25 (≈ 0.577 µM) | 32 (≈ 73.8 µM) | 1 (≈ 2.31 µM) | 5.89
CC(=O)NC[C@H]1CN(c2ccc3c(c2)CCCc2c(-c4ccc(C#N)cc4)n[nH]c2-3)C(=O)O1 | 0.125 (≈ 0.283 µM) | 0.25 (≈ 0.566 µM) | 0.5 (≈ 1.13 µM) | 0.25 (≈ 0.566 µM) | 4 (≈ 9.06 µM) | 1 (≈ 2.27 µM) | 5.85
CC(=O)NC[C@H]1CN(c2ccc3c(c2)CCCc2c(-c4ccccc4)n[nH]c2-3)C(=O)O1 | 0.5 (≈ 1.2 µM) | 0.5 (≈ 1.2 µM) | 0.5 (≈ 1.2 µM) | 0.5 (≈ 1.2 µM) | 8 (≈ 19.2 µM) | 2 (≈ 4.8 µM) | 5.70
CC(=O)NC[C@H]1CN(c2cc(F)c3c(c2)CCCc2c(-c4cc(C)n(C)n4)n[nH]c2-3)C(=O)O1 | 1 (≈ 2.21 µM) | 2 (≈ 4.42 µM) | 4 (≈ 8.84 µM) | 1 (≈ 2.21 µM) | > 64 | 32 (≈ 70.7 µM) | 5.38
Cc1cc(C(=O)NC[C@H]2CN(c3cc(F)c4c(c3)CCCc3c(-c5cc(C)on5)n[nH]c3-4)C(=O)O2)no1 | > 64 | > 64 | > 64 | > 64 | > 64 | > 64 | 4.94
